Reference: patent US20020051978A1, “Methods and compositions for the identification, assessment, prevention and therapy of human cancers” (priority 2000, published 2002)

System: 60 cancer cell lines (NCI 60 cancer cell line series)
Assay: NCI-DTP in vitro cancer screen, sulforhodamine B (SRB) growth inhibition, 48 hour exposure
Format: cell-based, human
Parameters: key to sensitivity class Ovarian OVCAR-8 CL6005 / sensitivity class Ovarian SK-OV-3 CL6011 / sensitivity class Prostate DU-145 CL11003 / sensitivity class NSCLC NCI-H522 CL1003 / sensitivity class Ovarian IGROV1 CL6010 / sensitivity class Ovarian OVCAR-4 CL6002 / sensitivity class Prostate PC-3(I) CL11001 / sensitivity class Renal A498 CL9013 / sensitivity class Renal SN12C CL9008: sensitivity class: 1 = Low, 2 = Medium, 3 = High
Summary of the method: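 Values come from the NCI-DTP screen database: -log GI50, the concentration giving 50% growth inhibition, derived from SRB cell-mass dose-response curves. Each line seeded at its own density, treated day 1 at five ten-fold-spaced doses in duplicate wells, stained after 48 h.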

Compound: O=C1c2c(O)ccc(O)c2C(=O)c2c(NCCNCCO)ccc(NCCNCCO)c21 [Mitoxantrone]
- classification of cell line as Low(1), Medium(2) or High(3) sensitivity to compound (Breast BT-549 (CL5013)): 2
- classification of cell line as Low(1), Medium(2) or High(3) sensitivity to compound (Breast HS-578T CL5006): 2
- classification of cell line as Low(1), Medium(2) or High(3) sensitivity to compound (Breast MCF7(I) (CL5001)): 3
- classification of cell line as Low(1), Medium(2) or High(3) sensitivity to compound (Breast MCF7/ADRr (CL5002)): 1
- classification of cell line as Low(1), Medium(2) or High(3) sensitivity to compound (Breast MDA-MB-231 CL5005): 1
- classification of cell line as Low(1), Medium(2) or High(3) sensitivity to compound (Breast MDA-MB-435 (CL5011)): 1
- classification of cell line as Low(1), Medium(2) or High(3) sensitivity to compound (Breast MDA-N CL5012): 1
- classification of cell line as Low(1), Medium(2) or High(3) sensitivity to compound (Breast T-47D (CL5014)): 2
- classification of cell line as Low(1), Medium(2) or High(3) sensitivity to compound (CNS SF-268 CL12014): 2
- classification of cell line as Low(1), Medium(2) or High(3) sensitivity to compound (CNS SF-295 CL12015): 2
- classification of cell line as Low(1), Medium(2) or High(3) sensitivity to compound (CNS SF-539 CL12016): 3
- classification of cell line as Low(1), Medium(2) or High(3) sensitivity to compound (CNS SNB-19 (CL12002)): 3
- classification of cell line as Low(1), Medium(2) or High(3) sensitivity to compound (CNS SNB-75(I) CL12005): 3
- classification of cell line as Low(1), Medium(2) or High(3) sensitivity to compound (CNS U251(I) CL12009): 3
- classification of cell line as Low(1), Medium(2) or High(3) sensitivity to compound (Colon COLO-250 CL4010): 2
- classification of cell line as Low(1), Medium(2) or High(3) sensitivity to compound (Colon HCC-2998 (CL4002)): 1
- classification of cell line as Low(1), Medium(2) or High(3) sensitivity to compound (Colon HCT-15 CL4015): 1
- classification of cell line as Low(1), Medium(2) or High(3) sensitivity to compound (Colon HCT-116 (CL4003)): 2
- classification of cell line as Low(1), Medium(2) or High(3) sensitivity to compound (Colon HT29(I) CL4001): 1
- classification of cell line as Low(1), Medium(2) or High(3) sensitivity to compound (Colon KM12 (CL4017)): 1
- classification of cell line as Low(1), Medium(2) or High(3) sensitivity to compound (Colon SW-620 (CL4009)): 2
- classification of cell line as Low(1), Medium(2) or High(3) sensitivity to compound (Leukemia CCRF-CEM(I) (CL7003)): 3
- classification of cell line as Low(1), Medium(2) or High(3) sensitivity to compound (Leukemia HL-60(I) (CL7008)): 3
- classification of cell line as Low(1), Medium(2) or High(3) sensitivity to compound (Leukemia K562(I) CL7005): 2
- classification of cell line as Low(1), Medium(2) or High(3) sensitivity to compound (Leukemia MOLT-4 (CL7006)): 3
- classification of cell line as Low(1), Medium(2) or High(3) sensitivity to compound (Leukemia RPMI-8226(I) (CL7010)): 2
- classification of cell line as Low(1), Medium(2) or High(3) sensitivity to compound (Leukemia SR CL7019): 3
- classification of cell line as Low(1), Medium(2) or High(3) sensitivity to compound (Melanoma LOX IMVI CL10001): 2
- classification of cell line as Low(1), Medium(2) or High(3) sensitivity to compound (Melanoma M14 (CL10014)): 2
- classification of cell line as Low(1), Medium(2) or High(3) sensitivity to compound (Melanoma MALME-3M CL10002): 2
- classification of cell line as Low(1), Medium(2) or High(3) sensitivity to compound (Melanoma SK-MEL-2 (CL10005)): 1
- classification of cell line as Low(1), Medium(2) or High(3) sensitivity to compound (Melanoma SK-MEL-5 (CL10007)): 2
- classification of cell line as Low(1), Medium(2) or High(3) sensitivity to compound (Melanoma SK-MEL-28 (CL10008)): 1
- classification of cell line as Low(1), Medium(2) or High(3) sensitivity to compound (Melanoma UACC-62 (CL10020)): 2
- classification of cell line as Low(1), Medium(2) or High(3) sensitivity to compound (Melanoma UACC-257 (CL10021)): 1
- classification of cell line as Low(1), Medium(2) or High(3) sensitivity to compound (NSCLC A549/ATCC (CL1004)): 3
- classification of cell line as Low(1), Medium(2) or High(3) sensitivity to compound (NSCLC EKVX (CL1008)): 1
- classification of cell line as Low(1), Medium(2) or High(3) sensitivity to compound (NSCLC HOP-62 (CL1026)): 3
- classification of cell line as Low(1), Medium(2) or High(3) sensitivity to compound (NSCLC HOP-92 (CL1029)): 3
- classification of cell line as Low(1), Medium(2) or High(3) sensitivity to compound (NSCLC NCI-H226 CL1013): 3
- sensitivity class NSCLC NCI-H23(I) CL1001 (cell line NSCLC NCI-H23(I), CL1001): 2
- sensitivity class NSCLC NCI-H332M CL1017 (cell line NSCLC NCI-H332M, CL1017): 1
- sensitivity class NSCLC NCI-H460 CL1021 (cell line NSCLC NCI-H460, CL1021): 3
- sensitivity class NSCLC NCI-H522 CL1003 (cell line NSCLC NCI-H522, CL1003): 2
- sensitivity class Ovarian IGROV1 CL6010 (cell line Ovarian IGROV1, CL6010): 2
- sensitivity class Ovarian OVCAR-3 CL6001 (cell line Ovarian OVCAR-3, CL6001): 1
- sensitivity class Ovarian OVCAR-4 CL6002 (cell line Ovarian OVCAR-4, CL6002): 1
- sensitivity class Ovarian OVCAR-5 CL6003 (cell line Ovarian OVCAR-5, CL6003): 1
- sensitivity class Ovarian OVCAR-8 CL6005 (cell line Ovarian OVCAR-8, CL6005): 2
- sensitivity class Ovarian SK-OV-3 CL6011 (cell line Ovarian SK-OV-3, CL6011): 2
- sensitivity class Prostate DU-145 CL11003 (cell line Prostate DU-145, CL11003): 2
- sensitivity class Prostate PC-3(I) CL11001 (cell line Prostate PC-3(I), CL11001): 2
- sensitivity class Renal 786-O CL9018 (cell line Renal 786-O, CL9018): 2
- sensitivity class Renal A498 CL9013 (cell line Renal A498, CL9013): 2
- sensitivity class Renal ACHN CL9023 (cell line Renal ACHN, CL9023): 3
- sensitivity class Renal CAKI-1 CL9015 (cell line Renal CAKI-1, CL9015): 3
- sensitivity class Renal RXF-393 CL9016 (cell line Renal RXF-393, CL9016): 2
- sensitivity class Renal SN12C CL9008 (cell line Renal SN12C, CL9008): 3
- sensitivity class Renal TK10 CL9024 (cell line Renal TK10, CL9024): 1
- sensitivity class Renal UO-31 CL9004 (cell line Renal UO-31, CL9004): 1
